# Source: patent US20190092720A1, “FUNCTIONALIZED BENZAMIDE DERIVATIVES AS ANTIVIRAL AGENTS AGAINST HBV INFECTION” (BARUCH S. BLUMBERG INSTITUTE, priority 2012, published 2019)
# Assays:
# Assay type in all cases: cell-based, Hepatitis B virus (HBV)
# [1] = tested on: HBV replication in HepDES19 cells; assay: Antiviral activity in HepDES19 cells (core-associated HBV DNA, Southern blot); details: Hepatitis B virus, HepDES19, 144 h, concentration that reduces core-associated HBV DNA by 50%; 6 days; serial dilution 10 μM to 0.018 μM
# Text: Determination of antiviral activity of compounds of the disclosure, as presented in Table 1, in human hepatoma-derived cell lines: To further confirm the antiviral activity of the compounds of the disclosure against HBV in human hepatocyte-derived cells, HepDES19 cells, a human hepatoma cell line supporting HBV replication in a tetracycline inducible manner (Guo et al., 2007), seeded into 12-well plates at a density of 5×10^5 cells per well and cultured in DMEM/F12 media with 10% fetal bovine serum and 1 μg/ml tetracycline. Two days after seeding, the cells were mock-treated or treated with a serial dilution of compounds of the disclosure, ranging from 10 μM to 0.018 μM, for 6 days in the absence of tetracycline. Upon the completion of treatment, cells were lysed by adding into each well of the 12-well plates 0.5 ml of lysis buffer containing 10 mM Tris-HCl (pH 8.0), 1 mM EDTA, 1% NP40 and 2% sucrose and incubating at 37° C. for 10 minutes. Cell debris and nuclei were removed by centrifugation and the supernatant was mixed with 130 μl of 35% polyethylene glycol (PEG) 8000 containing 1.5 M NaCl. After 1 hour incubation in ice, viral nucleocapsids were pelleted by centrifugation at 6,000×g for 5 min at 4° C., followed by 1 hour digestion at 37° C. in 400 μl of digestion buffer containing 0.5 mg/ml pronase (Calbiochem), 0.5% SDS, 150 mM NaCl, 25 mM Tris-HCl (pH 8.0) and 10 mM EDTA. The digestion mixture was extracted twice with phenol and DNA was precipitated with ethanol, dissolved in TE buffer (10 mM Tris-HCl, pH 8.0; 0.1 mM EDTA). One half of the DNA sample from each well was resolved by electrophoresis into a 1.5% agarose gel. The gel was then subjected to denaturation in a solution containing 0.5 M NaOH and 1.5 M NaCl, followed by neutralization in a buffer containing 1 M Tris-HCl (pH7.4) and 1.5 M NaCl. DNA was then blotted onto Hybond-XL membrane (GE Health care) in 20×SSC buffer. The amounts of cytoplasmic HBV core-associated HBV DNA were determined by Southern blot hybridization and the antiviral efficacy of a compound was expressed as its concentration that reduce the amount of HBV DNA by 50% (EC50) or 90% (EC90).
# [2] = tested on: HBV mRNA; assay: Intracellular viral RNA by Northern blot in AML12HBV10 cells; details: 2 days, FIG. 1 panel A
# Method: (§1) FIG. 1. Antiviral mechanism of the compounds of the present invention. AML12HBV10 cells were left untreated (NT) or treated with the indicated concentrations of the compounds of the disclosure Compound 6 and Compound 19, respectively, for 2 days. Bay-4109 (3 µM) or AT-61 (25 µM) served as positive controls. (A) Intracellular viral RNA was determined by Northern blot hybridization. Ribosomal RNA served as a loading control. (B) The total amounts of nucleocapsids were determined by a particle gel assay. (C) Encapsidated pgRNA were extracted and measured by Northern blot. (D) Nucleocapsid-associated HBV DNA was quantified by alkaline-treatment of nucleocapsids on the membrane following the particle gel assay and hybridized with a HBV-specific riboprobe. (E) HBV DNA replication intermediates were extracted and determined by Southern blot hybridizations.
# Procedure for analysis of HBV mRNA: Upon the completion of treatment, total cellular RNA was extracted with TRIzol reagents (Invitrogen). Five micrograms of total RNA was resolved in 1.5% agarose gel containing 2.2 M formadelhyde and transferred onto Hybond-XL membrane in 20×SSC buffer. The amounts of HBV mRNA were determined by Northern blot hybridization with an alpha-^32P-UTP labeled riboprobe specific for plus strand of HBV genome.
# [3] = tested on: capsid-associated HBV DNA; assay: Capsid-associated HBV DNA and DNA replication intermediates in AML12HBV10 cells; details: 2 days, FIG. 1 panels D and E
# Method: as §1
# Procedures of viral capsids and nucleocapsid-associated DNA analysis: AML12HB10 cells were lysed by addition of 300 μl buffer containing 10 mM Tris-HCl (pH7.6), 100 mM NaCl, 1 mM EDTA and 0.1% NP-40 to each well of 12-well plate. Cell debries were removed by centrifugation at 5000 g for 10 minutes. Ten microliters of the clarified cell lysates were fractionated by electrophoresis through nondenaturing 1% agarose gels and transferred to a nitrocellulose filter by blotting with TNE buffer (10 mM Tris-HCl, pH7.6; 150 mM NaCl and 1 mM EDTA). HBV capsids were detected by probing the membrane with an antibody against HBV core protein (DAKO). […] To detect capsid associated HBV DNA, the membrane were treated with buffer containing 0.5N NaOH and 1.5 M NaCl for 5 minutes and followed by neutralization with buffer containing 1 M TRIS-HCl and 1.5M NaCl for 5 minutes. The viral DNA was detected by hybridization with a α-^32P-UTP (800 Ci/mmol, Perkin Elmer) labeled minus strand specific full-length HBV riboprobe (Xu et al.).
# To analyze the HBV DNA replication intermediates, cells were lysed by adding into each well of the 12-well plates 0.5 ml of lysis buffer containing 10 mM Tris-HCl (pH 8.0), 1 mM EDTA, 1% NP40 and 2% sucrose and incubating at 37° C. for 10 minutes. Cell debris and nuclei were removed by centrifugation and the supernatant was mixed with 130 μl of 35% polyethylene glycol (PEG) 8000 containing 1.5 M NaCl. After 1 hour incubation in ice, viral nucleocapsids were pelleted by centrifugation at 6,000×g for 5 minutes at 4° C., followed by 1 hour digestion at 37° C. in 400 μl of digestion buffer containing 0.5 mg/ml pronase (Calbiochem), 0.5% SDS, 150 mM NaCl, 25 mM Tris-HCl (pH 8.0) and 10 mM EDTA. The digestion mixture was extracted twice with phenol and DNA was precipitated with ethanol, dissolved in TE buffer (10 mM Tris-HCl, pH 8.0; 0.1 mM EDTA). […]
smiles,measurement,setting,value
O=C(Nc1cccc(Cl)c1)c1scc2c1OCCO2 [Entry 6],EC50,[1],13.5 µM
same,amount of viral mRNA,[2],did not affect
same,capsid-associated HBV DNA / DNA synthesis,[3],reduced encapsidated pgRNA and capsid-associated HBV DNA in a dose-dependent manner
